Assay results: US20170368082A1, “FORMULATIONS OF BRINCIDOFOVIR” (priority 2016, published 2017)
Read-outs that look alike come from different tables or passages of the source.

What was measured:
[1] = Mass balance (excretion of total radioactivity) after 2-h IV infusion of [^14C]brincidofovir; assay type: in vivo, male Sprague Dawley rats
Experimental: All animals were obtained from Hilltop Lab Animals, Inc. (Scottdale, Pa.). Rats weighed between 214 and 265 g at dosing. […] Three dosing formulations (one for high dose IV, one for low dose IV, and one for PO dose) were prepared at QPS on the day of dosing. […] The IV dose formulation for Group 5 and the PO dose formulation for Groups 6 and 7 contained higher concentration of buffer so that the final buffer concentration was approximately 10 mM in all dose formulations. […] Urine samples were collected from each animal into pre-labeled urine collection tubes at pre-dose (overnight) and at intervals of 0-8 h, 8-24 h, and at every subsequent 24 h interval until 168 h post-dose. All urine specimens were collected over dry ice. The total weight of each urine collection was documented, and the samples were stored frozen at approximately −70° C. until LSC analysis. Samples were maintained at approximately −70° C. following analysis, and were saved for further analysis, to be conducted under a separate protocol. Feces samples were collected from each animal into a pre-labeled feces collection tube at pre-dose (overnight) and at 24 h intervals post-dose until 168 h post-dose. Feces specimens were collected over dry ice and the total weight of each feces sample was documented. Feces samples were stored at approximately −70° C. until homogenization and LSC analysis, were maintained at approximately −70° C. following analysis, and were saved for further analysis, to be conducted under a separate protocol. Feces were homogenized and analyzed for total radioactivity content. […] The actual weights of the individual aliquots and the amount of solvent used in homogenization were recorded. Pre-weighed portions of each feces homogenate were placed into a CombustoCone® that contained a CombustoPad®, allowed to dry over-night in a fume hood, and were burned completely in the sample oxidizer. […] Volumes or weights of sample aliquots were documented in the study records.

[2] = cited from earlier work

CCCCCCCCCCCCCCCCOCCCOP(=O)(O)CO[C@H](CO)Cn1ccc(N)nc1=O [[^14C]brincidofovir]
Radioactivity recovered in feces ([1]; 15 mg/kg 2-h IV, 168 h): 42.2 % of administered dose
Radioactivity recovered in urine ([1]; 15 mg/kg 2-h IV, 168 h): 51.2 % of administered dose
Total recovery in urine and feces combined ([1]; 168 h): 93.5 % of the dose
Percent Recovery of total radioactivity ([1]; Feces 0-24 h, Mean, 15 mg/kg IV): 36.7 % Dose
Percent Recovery of total radioactivity ([1]; Feces 0-24 h, Rat 01, 15 mg/kg IV): 37.3 % Dose
Percent Recovery of total radioactivity ([1]; Feces 0-24 h, Rat 02, 15 mg/kg IV): 37.6 % Dose
Percent Recovery of total radioactivity ([1]; Feces 0-24 h, Rat 03, 15 mg/kg IV): 35.1 % Dose
Percent Recovery of total radioactivity ([1]; Feces 24-48 h, Mean, 15 mg/kg IV): 3.8 % Dose
Percent Recovery of total radioactivity ([1]; Feces 24-48 h, Rat 01, 15 mg/kg IV): 3.4 % Dose
Percent Recovery of total radioactivity ([1]; Feces 24-48 h, Rat 02, 15 mg/kg IV): 4.6 % Dose
Percent Recovery of total radioactivity ([1]; Feces 24-48 h, Rat 03, 15 mg/kg IV): 3.5 % Dose
Percent Recovery of total radioactivity ([1]; Feces 48-72 h, Mean, 15 mg/kg IV): 0.9 % Dose
Percent Recovery of total radioactivity ([1]; Feces 48-72 h, Rat 01, 15 mg/kg IV): 0.9 % Dose
Percent Recovery of total radioactivity ([1]; Feces 48-72 h, Rat 02, 15 mg/kg IV): 1.0 % Dose
Percent Recovery of total radioactivity ([1]; Feces 48-72 h, Rat 03, 15 mg/kg IV): 0.8 % Dose
Percent Recovery of total radioactivity ([1]; Feces 72-96 h, Mean, 15 mg/kg IV): 0.4 % Dose
Percent Recovery of total radioactivity ([1]; Feces 72-96 h, Rat 01, 15 mg/kg IV): 0.4 % Dose
Percent Recovery of total radioactivity ([1]; Feces 72-96 h, Rat 02, 15 mg/kg IV): 0.4 % Dose
Percent Recovery of total radioactivity ([1]; Feces 72-96 h, Rat 03, 15 mg/kg IV): 0.4 % Dose
Percent Recovery of total radioactivity ([1]; Feces 96-120 h, Mean, 15 mg/kg IV): 0.2 % Dose
Percent Recovery of total radioactivity ([1]; Feces 96-120 h, Rat 01, 15 mg/kg IV): 0.2 % Dose
Percent Recovery of total radioactivity ([1]; Feces 96-120 h, Rat 02, 15 mg/kg IV): 0.2 % Dose
Percent Recovery of total radioactivity ([1]; Feces 96-120 h, Rat 03, 15 mg/kg IV): 0.2 % Dose
Percent Recovery of total radioactivity ([1]; Feces 120-144 h, Mean, 15 mg/kg IV): 0.1 % Dose
Percent Recovery of total radioactivity ([1]; Feces 120-144 h, Rat 01, 15 mg/kg IV): 0.1 % Dose
Percent Recovery of total radioactivity ([1]; Feces 120-144 h, Rat 02, 15 mg/kg IV): 0.1 % Dose
Percent Recovery of total radioactivity ([1]; Feces 120-144 h, Rat 03, 15 mg/kg IV): 0.1 % Dose
Percent Recovery of total radioactivity ([1]; Feces 144-168 h, Mean, 15 mg/kg IV): 0.1 % Dose
Percent Recovery of total radioactivity ([1]; Feces 144-168 h, Rat 01, 15 mg/kg IV): 0.1 % Dose
Percent Recovery of total radioactivity ([1]; Feces 144-168 h, Rat 02, 15 mg/kg IV): 0.1 % Dose
Percent Recovery of total radioactivity ([1]; Feces 144-168 h, Rat 03, 15 mg/kg IV): 0.1 % Dose
Percent Recovery of total radioactivity ([1]; Feces Subtotal (0-168 h), Mean, 15 mg/kg IV): 42.2 % Dose
Percent Recovery of total radioactivity ([1]; Feces Subtotal (0-168 h), Rat 01, 15 mg/kg IV): 42.4 % Dose
Percent Recovery of total radioactivity ([1]; Feces Subtotal (0-168 h), Rat 02, 15 mg/kg IV): 44.2 % Dose
Percent Recovery of total radioactivity ([1]; Feces Subtotal (0-168 h), Rat 03, 15 mg/kg IV): 40.2 % Dose
Percent Recovery of total radioactivity ([1]; Total urine + feces (0-168 h), Mean, 15 mg/kg IV): 93.5 % Dose
Percent Recovery of total radioactivity ([1]; Total urine + feces (0-168 h), Rat 01, 15 mg/kg IV): 93.6 % Dose
Percent Recovery of total radioactivity ([1]; Total urine + feces (0-168 h), Rat 02, 15 mg/kg IV): 91.6 % Dose
Percent Recovery of total radioactivity ([1]; Total urine + feces (0-168 h), Rat 03, 15 mg/kg IV): 95.2 % Dose
Percent Recovery of total radioactivity ([1]; Urine 0-8 h, Mean, 15 mg/kg IV): 31.0 % Dose
Percent Recovery of total radioactivity ([1]; Urine 0-8 h, Rat 01, 15 mg/kg IV): 33.0 % Dose
Percent Recovery of total radioactivity ([1]; Urine 0-8 h, Rat 02, 15 mg/kg IV): 29.3 % Dose
Percent Recovery of total radioactivity ([1]; Urine 0-8 h, Rat 03, 15 mg/kg IV): 30.7 % Dose
Percent Recovery of total radioactivity ([1]; Urine 8-24 h, Mean, 15 mg/kg IV): 12.8 % Dose
Percent Recovery of total radioactivity ([1]; Urine 8-24 h, Rat 01, 15 mg/kg IV): 10.7 % Dose
Percent Recovery of total radioactivity ([1]; Urine 8-24 h, Rat 02, 15 mg/kg IV): 11.5 % Dose
Percent Recovery of total radioactivity ([1]; Urine 8-24 h, Rat 03, 15 mg/kg IV): 16.2 % Dose
Percent Recovery of total radioactivity ([1]; Urine 24-48 h, Mean, 15 mg/kg IV): 4.1 % Dose
Percent Recovery of total radioactivity ([1]; Urine 24-48 h, Rat 01, 15 mg/kg IV): 4.3 % Dose
Percent Recovery of total radioactivity ([1]; Urine 24-48 h, Rat 02, 15 mg/kg IV): 3.6 % Dose
Percent Recovery of total radioactivity ([1]; Urine 24-48 h, Rat 03, 15 mg/kg IV): 4.5 % Dose
Percent Recovery of total radioactivity ([1]; Urine 48-72 h, Mean, 15 mg/kg IV): 1.7 % Dose
Percent Recovery of total radioactivity ([1]; Urine 48-72 h, Rat 01, 15 mg/kg IV): 1.6 % Dose
Percent Recovery of total radioactivity ([1]; Urine 48-72 h, Rat 02, 15 mg/kg IV): 1.6 % Dose
Percent Recovery of total radioactivity ([1]; Urine 48-72 h, Rat 03, 15 mg/kg IV): 1.9 % Dose
Percent Recovery of total radioactivity ([1]; Urine 72-96 h, Mean, 15 mg/kg IV): 0.8 % Dose
Percent Recovery of total radioactivity ([1]; Urine 72-96 h, Rat 01, 15 mg/kg IV): 0.8 % Dose
Percent Recovery of total radioactivity ([1]; Urine 72-96 h, Rat 02, 15 mg/kg IV): 0.8 % Dose
Percent Recovery of total radioactivity ([1]; Urine 72-96 h, Rat 03, 15 mg/kg IV): 0.8 % Dose
Percent Recovery of total radioactivity ([1]; Urine 96-120 h, Mean, 15 mg/kg IV): 0.4 % Dose
Percent Recovery of total radioactivity ([1]; Urine 96-120 h, Rat 01, 15 mg/kg IV): 0.4 % Dose
Percent Recovery of total radioactivity ([1]; Urine 96-120 h, Rat 02, 15 mg/kg IV): 0.3 % Dose
Percent Recovery of total radioactivity ([1]; Urine 96-120 h, Rat 03, 15 mg/kg IV): 0.5 % Dose
Percent Recovery of total radioactivity ([1]; Urine 120-144 h, Mean, 15 mg/kg IV): 0.2 % Dose
Percent Recovery of total radioactivity ([1]; Urine 120-144 h, Rat 01, 15 mg/kg IV): 0.2 % Dose
Percent Recovery of total radioactivity ([1]; Urine 120-144 h, Rat 02, 15 mg/kg IV): 0.2 % Dose
Percent Recovery of total radioactivity ([1]; Urine 120-144 h, Rat 03, 15 mg/kg IV): 0.3 % Dose
Percent Recovery of total radioactivity ([1]; Urine 144-168 h, Mean, 15 mg/kg IV): 0.2 % Dose
Percent Recovery of total radioactivity ([1]; Urine 144-168 h, Rat 01, 15 mg/kg IV): 0.2 % Dose
Percent Recovery of total radioactivity ([1]; Urine 144-168 h, Rat 02, 15 mg/kg IV): 0.1 % Dose
Percent Recovery of total radioactivity ([1]; Urine 144-168 h, Rat 03, 15 mg/kg IV): 0.2 % Dose
Percent Recovery of total radioactivity ([1]; Urine Subtotal (0-168 h), Mean, 15 mg/kg IV): 51.2 % Dose
Percent Recovery of total radioactivity ([1]; Urine Subtotal (0-168 h), Rat 01, 15 mg/kg IV): 51.2 % Dose
Percent Recovery of total radioactivity ([1]; Urine Subtotal (0-168 h), Rat 02, 15 mg/kg IV): 47.5 % Dose
Percent Recovery of total radioactivity ([1]; Urine Subtotal (0-168 h), Rat 03, 15 mg/kg IV): 55.1 % Dose
Fecal excretion in first 24 h ([1]; rat, in vivo): 36.7 % of the dose
Fecal excretion in first 24 h, share of radioactivity excreted in feces ([1]; rat, in vivo): 87%
Share of urinary and fecal excretion in first 24 h ([1]; rat, in vivo): ~86%
Urinary excretion in first 24 h ([1]; rat, in vivo): 43.8 % of the dose
Urinary excretion in first 24 h, share of radioactivity excreted in urine ([1]; rat, in vivo): 86%

CCCCCCCCCCCCCCCCOCCCOP(=O)(O)CO[C@H](CO)Cn1ccc(N)nc1=O [Brincidofovir]
Instance of diarrhea ([2]; single oral dose 100 mg and 200 mg): about 5%
Instance of diarrhea ([2]; single oral dose 350 mg): about 20%
